Data: ChEMBL document CHEMBL6078653, “In Vitro Biological Target Screening and Colloidal Aggregation of Minor Cannabinoids” (J Nat Prod, 2024)

Columns and labels:
[1] = biological target: Histamine H1 receptor (Homo sapiens, UniProt P35367); assay: Displacement of [3H]-Pyrilamine from human recombinant H1 receptor expressed in CHO-K1 cells incubated for 3 hrs by radioligand binding assay; type: toxicity, cell-based
[2] = biological target: Mu-type opioid receptor (Homo sapiens, UniProt P35372); assay: Displacement of [3H]-Diprenorphine from human recombinant MOP receptor expressed in CHO-K1 cells incubated for 60 mins by radioligand binding assay; type: toxicity, cell-based
Sequence of Mu-type opioid receptor (P35372 whole entry): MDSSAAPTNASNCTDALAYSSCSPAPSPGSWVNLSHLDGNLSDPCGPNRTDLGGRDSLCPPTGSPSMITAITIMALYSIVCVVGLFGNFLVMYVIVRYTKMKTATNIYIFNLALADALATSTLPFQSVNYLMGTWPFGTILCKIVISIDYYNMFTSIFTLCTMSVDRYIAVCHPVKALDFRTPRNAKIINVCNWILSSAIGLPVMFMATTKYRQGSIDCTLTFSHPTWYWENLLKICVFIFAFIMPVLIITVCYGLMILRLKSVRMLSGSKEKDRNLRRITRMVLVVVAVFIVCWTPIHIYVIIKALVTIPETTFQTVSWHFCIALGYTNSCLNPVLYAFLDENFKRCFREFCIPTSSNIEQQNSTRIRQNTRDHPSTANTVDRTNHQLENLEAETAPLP

[3] = biological target: Sodium-dependent noradrenaline transporter (Homo sapiens, UniProt P23975); assay: Displacement of [125]RTI-55 from human recombinant NET receptor expressed in MDCK cells incubated for 3 hrs by radioligand binding assay; type: toxicity, cell-based
Sequence of Sodium-dependent noradrenaline transporter (P23975 whole entry): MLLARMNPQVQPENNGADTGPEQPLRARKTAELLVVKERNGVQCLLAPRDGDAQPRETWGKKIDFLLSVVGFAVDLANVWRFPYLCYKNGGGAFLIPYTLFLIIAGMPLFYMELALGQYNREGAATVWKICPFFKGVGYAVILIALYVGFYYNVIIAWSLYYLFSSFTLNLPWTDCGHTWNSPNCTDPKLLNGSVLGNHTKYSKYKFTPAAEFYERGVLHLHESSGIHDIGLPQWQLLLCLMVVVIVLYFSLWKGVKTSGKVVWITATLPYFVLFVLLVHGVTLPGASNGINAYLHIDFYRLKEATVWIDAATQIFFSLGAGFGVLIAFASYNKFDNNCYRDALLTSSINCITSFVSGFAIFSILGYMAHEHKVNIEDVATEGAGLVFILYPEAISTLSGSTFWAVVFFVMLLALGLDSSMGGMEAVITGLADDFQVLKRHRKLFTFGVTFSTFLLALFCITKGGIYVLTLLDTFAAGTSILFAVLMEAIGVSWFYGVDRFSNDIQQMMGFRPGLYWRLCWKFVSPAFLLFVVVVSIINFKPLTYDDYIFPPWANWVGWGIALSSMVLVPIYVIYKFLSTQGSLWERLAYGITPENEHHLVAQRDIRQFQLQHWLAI

[4] = Aggregation property of compound in PB buffer at pH 7 assessed as critical aggregation concentration by DLS assay; type: physicochemical
[5] = Aggregation property of compound in DMEM assessed as critical aggregation concentration by DLS assay; type: physicochemical
[6] = species: Homo sapiens; assay: Inhibition of human MDH at 100 to 200 uM incubated for 5 mins in presence of NADH by absorbance based analysis relative to control; conditions: dose 100-200 µM
[7] = species: Homo sapiens; assay: Inhibition of human MDH at 100 to 200 uM incubated for 5 mins in presence of NADH and triton X-100 by absorbance based analysis relative to control; conditions: dose 100-200 µM
[8] = Inhibition of human MDH incubated for 5 mins in presence of NADH by absorbance based analysis
[9] = biological target: Sodium-dependent dopamine transporter (Homo sapiens, UniProt Q01959); assay: Displacement of [125]RTI-55 from human recombinant DAT receptor expressed in CHO-S cells incubated for 3 hrs by radioligand binding assay; type: cell-based
Sequence of Sodium-dependent dopamine transporter (Q01959 whole entry): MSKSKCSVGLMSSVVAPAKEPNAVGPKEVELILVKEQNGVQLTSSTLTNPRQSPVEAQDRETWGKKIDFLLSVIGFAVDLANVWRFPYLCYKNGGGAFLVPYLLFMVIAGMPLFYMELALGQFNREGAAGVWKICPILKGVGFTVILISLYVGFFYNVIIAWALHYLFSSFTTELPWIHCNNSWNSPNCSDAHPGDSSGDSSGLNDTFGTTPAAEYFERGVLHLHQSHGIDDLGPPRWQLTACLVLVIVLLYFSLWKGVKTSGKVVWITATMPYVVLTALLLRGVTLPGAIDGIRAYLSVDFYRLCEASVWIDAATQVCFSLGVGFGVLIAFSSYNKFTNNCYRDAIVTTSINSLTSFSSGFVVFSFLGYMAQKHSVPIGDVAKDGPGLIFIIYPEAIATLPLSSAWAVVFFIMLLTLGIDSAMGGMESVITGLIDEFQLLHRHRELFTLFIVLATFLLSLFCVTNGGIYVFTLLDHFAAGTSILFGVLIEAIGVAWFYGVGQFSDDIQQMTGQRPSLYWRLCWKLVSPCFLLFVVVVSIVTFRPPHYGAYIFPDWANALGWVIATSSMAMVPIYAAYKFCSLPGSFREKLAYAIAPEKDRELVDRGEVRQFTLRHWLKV

[10] = biological target: Sodium-dependent serotonin transporter (Homo sapiens, UniProt P31645); assay: Displacement of [3H]-Paroxetine from human […] cells incubated for 60 mins by radioligand binding assay; type: toxicity, cell-based
Sequence of Sodium-dependent serotonin transporter (P31645 whole entry): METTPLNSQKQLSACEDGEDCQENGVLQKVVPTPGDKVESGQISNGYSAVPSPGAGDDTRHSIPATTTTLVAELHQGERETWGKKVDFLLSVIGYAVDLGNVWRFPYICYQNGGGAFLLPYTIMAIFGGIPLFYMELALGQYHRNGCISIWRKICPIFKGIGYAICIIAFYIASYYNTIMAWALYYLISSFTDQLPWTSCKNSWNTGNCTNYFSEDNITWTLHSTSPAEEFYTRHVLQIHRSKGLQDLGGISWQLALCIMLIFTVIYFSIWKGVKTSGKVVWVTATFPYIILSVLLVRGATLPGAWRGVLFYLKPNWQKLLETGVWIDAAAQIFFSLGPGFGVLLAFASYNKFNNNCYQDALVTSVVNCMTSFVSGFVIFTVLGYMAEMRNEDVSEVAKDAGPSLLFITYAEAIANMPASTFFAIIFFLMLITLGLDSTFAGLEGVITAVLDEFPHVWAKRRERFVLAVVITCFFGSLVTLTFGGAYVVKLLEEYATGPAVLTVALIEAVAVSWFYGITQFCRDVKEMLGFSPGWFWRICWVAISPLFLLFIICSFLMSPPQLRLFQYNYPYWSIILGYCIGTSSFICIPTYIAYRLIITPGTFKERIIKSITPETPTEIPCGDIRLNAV

[11] = Aggregation property of compound in Tris HCL buffer at pH 7.4 assessed as critical aggregation concentration by DLS assay; type: physicochemical
[12] = Aggregation property of compound in PBS buffer at pH 7.4 assessed as critical aggregation concentration by DLS assay; type: physicochemical
[13] = biological target: 5-hydroxytryptamine receptor 2A (Homo sapiens, UniProt P28223); assay: Displacement of [3H]ketanserin from human recombinant 5-HT2A receptor expressed in CHO-K1 cells incubated for 60 mins by radioligand binding assay; type: toxicity, cell-based
Sequence of 5-hydroxytryptamine receptor 2A (P28223 whole entry): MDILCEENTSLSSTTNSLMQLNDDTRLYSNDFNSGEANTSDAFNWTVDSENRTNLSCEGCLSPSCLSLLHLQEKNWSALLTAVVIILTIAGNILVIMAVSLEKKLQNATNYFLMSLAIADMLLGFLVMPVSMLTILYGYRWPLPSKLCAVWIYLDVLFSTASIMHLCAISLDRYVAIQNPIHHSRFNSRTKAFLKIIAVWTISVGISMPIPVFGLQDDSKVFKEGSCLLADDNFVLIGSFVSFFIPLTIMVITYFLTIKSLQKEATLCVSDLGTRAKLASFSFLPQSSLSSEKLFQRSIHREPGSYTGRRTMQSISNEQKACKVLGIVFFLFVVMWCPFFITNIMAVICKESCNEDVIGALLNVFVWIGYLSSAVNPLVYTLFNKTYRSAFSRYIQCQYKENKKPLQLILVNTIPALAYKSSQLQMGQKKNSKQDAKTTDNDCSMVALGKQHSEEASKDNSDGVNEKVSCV

[14] = biological target: Voltage-gated inwardly rectifying potassium channel KCNH2 (Homo sapiens, UniProt Q12809); assay: Displacement of [3H]-Dofetilide from recombinant hERG expressed in HEK293 cells incubated for 60 mins by radioligand binding assay; type: toxicity, cell-based
Sequence of Voltage-gated inwardly rectifying potassium channel KCNH2 (Q12809 whole entry): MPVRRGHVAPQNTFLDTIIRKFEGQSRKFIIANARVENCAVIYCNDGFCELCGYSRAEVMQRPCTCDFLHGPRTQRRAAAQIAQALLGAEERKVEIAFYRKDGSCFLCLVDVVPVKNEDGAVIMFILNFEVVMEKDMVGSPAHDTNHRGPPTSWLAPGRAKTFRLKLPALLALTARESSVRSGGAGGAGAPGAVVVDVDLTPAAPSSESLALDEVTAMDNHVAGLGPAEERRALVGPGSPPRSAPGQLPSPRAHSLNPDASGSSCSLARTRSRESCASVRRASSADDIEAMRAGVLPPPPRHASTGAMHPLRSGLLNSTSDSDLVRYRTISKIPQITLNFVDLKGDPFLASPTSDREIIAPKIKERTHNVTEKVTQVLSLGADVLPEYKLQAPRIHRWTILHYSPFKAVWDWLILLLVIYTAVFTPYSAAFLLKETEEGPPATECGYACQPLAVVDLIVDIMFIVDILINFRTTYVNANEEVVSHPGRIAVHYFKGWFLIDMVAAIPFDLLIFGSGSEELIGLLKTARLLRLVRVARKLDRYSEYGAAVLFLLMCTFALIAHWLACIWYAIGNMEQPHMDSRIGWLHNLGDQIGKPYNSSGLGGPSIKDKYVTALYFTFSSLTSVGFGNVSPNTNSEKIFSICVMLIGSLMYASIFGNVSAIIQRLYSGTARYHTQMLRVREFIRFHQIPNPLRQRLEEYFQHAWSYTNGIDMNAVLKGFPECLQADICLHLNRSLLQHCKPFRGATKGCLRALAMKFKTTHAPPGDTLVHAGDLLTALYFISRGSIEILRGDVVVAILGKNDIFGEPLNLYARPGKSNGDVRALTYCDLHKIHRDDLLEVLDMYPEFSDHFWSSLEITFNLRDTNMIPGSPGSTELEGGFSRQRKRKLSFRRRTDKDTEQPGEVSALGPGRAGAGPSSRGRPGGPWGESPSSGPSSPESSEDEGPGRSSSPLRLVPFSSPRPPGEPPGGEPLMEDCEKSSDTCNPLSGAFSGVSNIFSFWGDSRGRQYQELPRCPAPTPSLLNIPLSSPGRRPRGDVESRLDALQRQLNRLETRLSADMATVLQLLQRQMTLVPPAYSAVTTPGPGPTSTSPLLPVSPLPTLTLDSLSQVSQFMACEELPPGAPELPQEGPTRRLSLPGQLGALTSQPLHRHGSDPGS

Sequence of Histamine H1 receptor (P35367 whole entry): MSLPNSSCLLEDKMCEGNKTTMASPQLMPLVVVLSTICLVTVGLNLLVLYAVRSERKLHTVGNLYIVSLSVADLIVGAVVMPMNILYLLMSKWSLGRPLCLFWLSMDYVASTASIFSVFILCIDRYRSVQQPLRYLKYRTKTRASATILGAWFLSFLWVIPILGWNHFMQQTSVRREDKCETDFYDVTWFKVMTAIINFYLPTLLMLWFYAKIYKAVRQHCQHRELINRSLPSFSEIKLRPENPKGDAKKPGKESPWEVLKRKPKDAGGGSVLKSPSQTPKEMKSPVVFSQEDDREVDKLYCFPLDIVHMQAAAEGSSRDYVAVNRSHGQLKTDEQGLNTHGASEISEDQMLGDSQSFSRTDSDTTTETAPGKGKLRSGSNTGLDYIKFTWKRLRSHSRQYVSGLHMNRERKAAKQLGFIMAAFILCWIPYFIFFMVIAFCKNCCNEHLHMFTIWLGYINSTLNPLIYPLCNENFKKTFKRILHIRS

CCCCCc1cc2c(c(O)c1C(=O)O)C=CC(C)(CCC=C(C)C)O2 (stereo unspecified)
IC50 [1]: 5.7 µM
IC50 [2]: 10.8 µM
IC50 [3]: 3.22 µM
CAC [4]: 100 µM
CAC [5]: 100 µM
inhibition [6]: 100%
inhibition [7]: 100%
IC50 [8]: 30.2 µM

CCCCCc1cc(O)c2c(c1)OC(C)(CCC=C(C)C)C=C2 (stereo unspecified) [CANNABICHROMENE]
IC50 [9]: 0.74 µM
IC50 [3]: 1.95 µM
IC50 [10]: 6.26 µM
CAC [4]: 5.6 µM
CAC [11]: 0.8 µM
CAC [12]: 0.2 µM
CAC [5]: 1.6 µM
inhibition [6]: 100%
inhibition [7]: 100%
IC50 [8]: 1 µM

C=C(C)[C@@H]1CCC(C)=C[C@H]1c1c(O)cc(CCCCC)c(C(=O)O)c1O [CANNABIDIOLIC ACID]
CAC [4]: 60.3 µM
inhibition [6]: 100%
inhibition [7]: 100%
IC50 [8]: 46.8 µM

C=C(C)[C@@H]1CCC(C)=C[C@H]1c1c(O)cc(CCC)cc1O [CANNABIDIVARIN]
IC50 [9]: 3 µM
IC50 [2]: 6.42 µM
IC50 [3]: 2.66 µM
CAC [4]: 31.6 µM
CAC [11]: 100 µM
CAC [12]: 31.6 µM
CAC [5]: 100 µM
inhibition [6]: 100%
inhibition [7]: 100%
IC50 [8]: 11 µM

CCCCCc1cc(O)c(C/C=C(\C)CCC=C(C)C)c(O)c1C(=O)O [CANNABIGEROLIC ACID]
IC50 [9]: 3.88 µM
CAC [4]: 12 µM
inhibition [6]: 100%
inhibition [7]: 100%
IC50 [8]: 28.8 µM

CCCCCc1cc(O)c(C/C=C(\C)CCC=C(C)C)c(O)c1 [CANNABIGEROL]
IC50 [13]: 1.88 µM
IC50 [9]: 0.95 µM
IC50 [14]: 3.06 µM
IC50 [2]: 1.38 µM
IC50 [3]: 2.45 µM
IC50 [10]: 1.66 µM
CAC [4]: 20.9 µM
CAC [11]: 20.3 µM
CAC [12]: 100 µM
CAC [5]: 16.7 µM
inhibition [6]: 100%
inhibition [7]: 100%
IC50 [8]: 8.8 µM

CCCCCc1cc(O)c2c(c1)OC(C)(C)c1ccc(C)cc1-2 [CANNABINOL]
IC50 [13]: 4.89 µM
IC50 [2]: 3.21 µM
IC50 [3]: 1.15 µM
IC50 [10]: 3.35 µM
CAC [4]: 12.9 µM
CAC [11]: 10.4 µM
CAC [12]: 23.1 µM
CAC [5]: 4.8 µM
inhibition [6]: 100%
inhibition [7]: 100%
IC50 [8]: 3.2 µM
